Assay results taken from patent US20080260724A1, “Drug Induced Exposure Of The Fungal Pro-Inflammatory Molecule Beta-Glucan” (priority 2005, published 2008).

Tests used:
[1] = system: anti-β-glucan antibody; test: Blocking of anti-β-glucan antibody binding to gas1Δ mutant; conditions: S. cerevisiae gas1Δ
Procedure: Overnight cultures of strains were grown in YPD and stained with anti-β-glucan primary antibody (Biosupplies Inc., Parkville, Australia) and Cy3-labeled goat-anti-mouse secondary. […] Stained cells were adhered to clear-bottom plates with concanavalin A (Sigma) and scanned with Cellomics VTI fluorescence microscopic imager (Cellomics, Pittsburgh, Pa., United States) using Target Acquisition software (Zeiss, Oberkochen, Germany). Mean average intensity and standard deviation of average intensity measurements were used to identify strains with over two standard deviations greater β-glucan exposure. Initially matA mutant strains were screened, then the independently constructed matα counterparts were screened. […]
Fungi were grown overnight, washed, blocked in PBS+2% BSA, and stained with either the anti-β-glucan antibody (followed by Cy3- or PE-labeled secondary antibody), Alexa Fluor-labeled Dectin-CRD, or Dectin-CRD-anti-Myc. […] Fluorescence was quantified on a FACScalibur cytometer (Becton-Dickinson, Palo Alto, Calif., United States); cells were gated by forward and side scatter based on wild-type cell size and shape, and mean fluorescence intensity of 20,000 labeled cells was calculated using Cellquest software (Becton-Dickinson).

[2] = system: β-glucan receptor; test: Laminarin preincubation of BMDMs (β-glucan receptor blocking), cytokine ELISA; assay type: cell-based, BL/6 mice
Procedure: RAW264.7 macrophages (ATCC, Manassas, Va., United States) were cultured in RPMI-10 (RPMI 1640 with 10% heat-inactivated fetal bovine serum and standard concentrations of penicillin-streptomycin; GIBCO, San Diego, Calif., United States). Cells were collected and plated in 24-well plates at 5×10^5 cells/well. Bone marrow derived macro-phages (BMDMs) were differentiated as described (Brown G D, et al., (2003), J Exp Med 197:1119). Briefly, bone marrow from BL/6 mice was cultured in RPMI-10 with 15% L-cell conditioned media and 25 ng/ml recombinant M-CSF (R&D Systems, Minneapolis, Minn., United States). Cells were collected after 6 d and plated in 24-well plates at 5×10^5 cells/well.
Fungi were grown overnight, washed extensively to remove any shed proteins or polysaccharides, and normalized by OD600 or hemacytometer (these two methods produced equivalent results). For S. cerevisiae, live fungi were added to RAW264.7 macrophages at equivalent effector:target (E:T) ratio of 1:5 in 24-well plates and incubated for 6 h, when supernatants were collected for ELISA. […]
In FIG. 1A, C. albicans strains were exposed to RAW264.7 macrophages at a ratio of 2:1 (yeast:macrophage), and supernatants were collected after 6 h. […] After unbound fungi were washed off, macrophages were incubated for 6 h at 37° C., and supernatants were collected for TNFα quantitation.

[3] = system: C. albicans CAF2; test: Growth inhibition of C. albicans by caspofungin (MIC50); assay type: cell-based; conditions: C. albicans CAF2 grown overnight in dilutions of CF
Procedure: (§1) Fungi were grown overnight in YPD rich medium for yeast-form growth and RPMI 1640 for hyphal growth. C. albicans was grown at 37° C.; S. cerevisiae was grown at 30° C. For CF treatment, overnight cultures of C. albicans CAF2 were diluted 1:1,000 into fresh YPD or RPMI 1640 containing dilutions of CF (caspofungin acetate, Candidas formulation, Merck, Whitehouse Station, N.J., United States) and grown overnight. […] For viability, cells were stained with propidium iodide (Sigma, St. Louis, Mo., United States).

[4] = system: wild-type C. albicans (CAF2); test: β-glucan exposure: anti-β-glucan antibody staining, microscopy and FACS; assay type: cell-based; conditions: for Mean fluorescence intensity (MFI), anti-β-glucan staining: FACS with PE-labeled secondary antibody
Procedure: as §1
Fungi were grown overnight, washed, blocked in PBS+2% BSA, and stained with either the anti-β-glucan antibody (followed by Cy3- or PE-labeled secondary antibody), Alexa Fluor-labeled Dectin-CRD, or Dectin-CRD-anti-Myc. Staining with antibody and Dectin-CRD is described above for the screen. For staining with Dectin-CRD-anti-Myc, Dectin-CRD was preincubated with FITC-labeled anti-Myc (Invitrogen) at a ratio of 3.4 μg of Dectin-CRD+10 μl of anti-Myc, and then added to fungi at 1:100 on ice. Preincubation of Dectin-CRD with anti-Myc creates a probe with the same approximate size as the anti-β-glucan antibody but with the specificity of Dectin-1. Images of stained cells were taken using a Nikon TE2000-S microscope (Nikon, Tokyo, Japan) equipped with Spot RT camera (Diagnostic Instruments, Sterling Heights, Mich., United States) and processed in Photoshop (Adobe Systems, Palo Alto, Calif., United States). Fluorescence was quantified on a FACScalibur cytometer (Becton-Dickinson, Palo Alto, Calif., United States); cells were gated by forward and side scatter based on wild-type cell size and shape, and mean fluorescence intensity of 20,000 labeled cells was calculated using Cellquest software (Becton-Dickinson).
Cultures grown at one-quarter and one-eighth of the CF MIC50 (minimal inhibitory concentration to inhibit 50% of the organisms) were stained with anti-β-glucan antibody and Cy3-labeled secondary antibody (FIGS. 2A and D) for visualization by microscopy or with PE-labeled secondary antibody (FIG. 2B) for FACS quantification. […]

[5] = system: wild-type C. albicans (CAF2); test: Viability by propidium iodide staining / microscopic examination; assay type: cell-based
Procedure: as §1
Cultures grown at one-quarter and one-eighth of the CF MIC50 (minimal inhibitory concentration to inhibit 50% of the organisms) were stained with anti-β-glucan antibody and Cy3-labeled secondary antibody (FIGS. 2A and D) for visualization by microscopy or with PE-labeled secondary antibody (FIG. 2B) for FACS quantification. […] Concurrently, cells were labeled briefly with propidium iodide to assess viability and visualized by epifluorescence microscopy or quantified by FACS (FIG. 2C). Cells grown overnight in YPD with or without CF were UV-inactivated and then exposed to BMDMs at a yeast:macrophage ratio of 10:1. Supernatants were taken at 6 h and assayed for TNFα (FIG. 2E).

Row | Substance | binding of anti-β-glucan antibody to gas1Δ mutant in presence of soluble β-glucan [1] | increased elicitation of pro-inflammatory cytokines by unmasked C. albicans mutants after laminarin preincubation ([2]; BMDMs preincubated 20 min on ice, yeast:macrophage 10:1, 6 h) | stimulation of macrophages by laminarin alone ([2]; BMDMs, 100 μg/ml laminarin, no fungi, TNFα) | MIC50 [3] | Mean fluorescence intensity (MFI), anti-β-glucan staining ([4]; one-eighth the CF MIC50, YPD) | Mean fluorescence intensity (MFI), anti-β-glucan staining ([4]; one-quarter the CF MIC50, YPD) | exposure of β-glucan on hyphae ([4]; subinhibitory doses of CF, RPMI 1640 (hyphal growth)) | viability of fungi ([5]; sub-inhibitory CF concentrations, YPD, propidium iodide) | cell death of hyphae ([5]; subinhibitory CF, RPMI 1640, microscopic examination)
1 | laminarin | blocked | great majority of the increased elicitation of pro-inflammatory cytokines could be blocked | does not stimulate | – | – | – | – | – | –
2 | caspofungin acetate [CF] | – | – | – | 2.5 ng/mL | 65 | 161 | dramatic increase | without loss of viability | did not show increased cell death
